Reference: BigSolDB 2.1

Cc1ccc(NC(=O)C(C)Cl)cc1 (stereo not given)
Settings	solubility (mole fraction)
in 2-butanone, 271.23 K	0.0774
in 2-butanone, 275.52 K	0.0829
in 2-butanone, 280.9 K	0.0892
in 2-butanone, 285.45 K	0.105
in 2-butanone, 291.46 K	0.115
in 2-butanone, 296.73 K	0.128
in 2-butanone, 302.41 K	0.13
in 2-butanone, 307.63 K	0.149
in 2-butanone, 313.15 K	0.173
in 2-butanone, 319.11 K	0.208
in acetone, 271.96 K	0.0616
in acetone, 283.37 K	0.0767
in acetone, 287.02 K	0.0811
in acetone, 290.81 K	0.0861
in acetone, 294.37 K	0.0917
in acetone, 300.04 K	0.105
in acetone, 302.89 K	0.114
in acetone, 307.95 K	0.136
in acetone, 310.94 K	0.15
in acetone, 315.55 K	0.155
in toluene, 273.24 K	0.00517
in toluene, 278.33 K	0.00719
in toluene, 285.5 K	0.00929
in toluene, 290.93 K	0.0125
in toluene, 297.29 K	0.0168
in toluene, 301.24 K	0.02
in toluene, 307.73 K	0.0278
in toluene, 312.06 K	0.0356
in toluene, 315.66 K	0.0413
in toluene, 321.66 K	0.0579
